In data set [1] the test system is PI3K/PKB pathway (phospho-PKB). Kind of data set: Western blot of chondrocyte lysates probed with anti-phospho-PKB (activation of PI3K/PKB pathway by PDGF). The format is cell-based. The note with it: primary human chondrocytes (non-OA joints), two samples. Here is the method:
(§1) Induction or Inhibition of PI3KI3K/PKB In Cultured Chondrocytes: In all studies described below chondrocytes were cultured in DMEM medium with or without 10% Fetal Bovine Serum (Invitrogen Life Technologies, Carlsbad, Calif.). Cultured chondrocyte cells are incubated overnight in serum free medium (DMEM) and then treated, as one of the following types of samples, 1) control samples, by incubating the cultures for 24 hour in serum free medium (DMEM) 2) induced samples, by incubating the cultures for 24 hours in serum free medium containing the PI3K/PKB inducer PDGF-BB (Invitrogen—Life Technologies Carlsbad, Calif.) or 3) PI3K/PKB inhibited samples, by pre-incubating the samples for 1 hour with the PI3K/PKB inhibitor LY294002 (Sigma, St. Louis, Mo.) and then incubating the cultures for 24 hours in serum free medium (DMEM) containing the PDGF-BB. FIG. 3 depicts activation of PI3K/PKB expression by PDGF in primary human chondrocytes. FIG. 4 depicts LY249002 (2-(4-morpholinyl)-8-phenyl-4H-1-benzopyran-4-one) inhibition of PDGF activated PI3K/PKB expression in primary human chondrocytes.
Western Blotting—Cells are incubated in serum free medium (DMEM) overnight, and then incubated for 10 minutes in fresh serum free media containing PDGF-BB (50 ng/ml)+/−LY294002 (20 μM). Cells are washed in ice cold PBS, scraped and sonicated in ice cold lysis buffer containing 50 mM Tris pH 7.4, 1% NP-40, 0.25% Na deoxycholate, 150 mM NaCl, 1 mM EGTA, 1 mM PMSF, aprotinin, leupeptin, and pepstatin (all at 1 μg/ml 1 mM Na vanadate, 1 mM NaF, and 1 μM microcystin) (Sigma, St Louis, Mo.). The protein concentration of the lysate is determined using the micro bicinchoninic acid assay (Pierce, Rockford, Ill.) and 20 μg lysate is run per lane for phospho-PKB and phospho-forkhead and 5 μg for anti-His antibody [rabbit anti-phospho-PKB-Ser473 NEB, rabbit anti-phospho-FKHRL1-Thr32 NEB, mouse anti penta-His (Qiagen, Valencia, Calif.)]. Peroxidase labeled secondary antibodies are purchased from Jackson Laboratories (Bar, Harbor, Me.). Blots are visualized with ECL reagent (Amersham, Piscataway, N.J.). […]

For data set [2], the system named is Collagenase-3 (MMP-13) mRNA. Kind of data set: Real time PCR, fold induction of Collagenase-3 (MMP-13) mRNA in human articular chondrocytes. Format: cell-based. To be noted: chondrocytes from one OA patient. As for the experimental part:
(§2) Chondrocytes were isolated from 2 normal and 2 OA patents. Cells alone or those over expressing the dominant negative form of Akt (retroviral mediated gene transfer) were treated with IL-1 beta, OSM or IL-1 beta+OSM with and without the PI3K inhibitor LY294002. RNA was isolated and the levels of Agg-1, Col-3 mRNA were measured by real time PCR. All treatments in four different donors were done in duplicate.
(§3) Total RNA was isolated from pooled duplicate 96-well plates using Qiagen RNeasy 96 kit (Qiagen, Valencia, Calif.) according to the manufacturer's instructions. The optional on-column Dnase I digestion was employed to eliminate contaminating genomic DNA. First strand cDNA was synthesized using random primers with the High-Capacity cDNA Archive kit (PE Applied Biosystems, Foster City, Calif.) in a 100 ul reaction volume.
(§4) Real time PCR was performed in a 384-well format on the ABI Prism 7900HT Sequence Detection System (Applied Biosystems, Foster City, Calif.) using SYBR Green PCR Master Mix (Applied Biosystems, Foster City, Calif.). The 20 ul reaction contained 5 ul cDNA, 200 nM forward and reverse primers, and SYBR Green PCR Master Mix. The default cycling program (95° C. for 10′ and 40 cycles of 95° C., 15″, 60° C., 1′) was followed by a slow ramping step by which a melting curve is generated to confirm the specificity of the PCR product and the absence of primer dimers.
(§5) Amplification of GAPDH was used to standardize the amount of sample cDNA added to the reaction. Changes in gene expression were calculated using the Comparative Ct method which makes use of a calibrator sample. This is the sample with which all others will be compared and whose value is therefore set to 1. All other values are therefore expressed relative to the calibrator. The retroviral vector containing no cDNA insert represents the calibrator sample. The amount of target, relative to the calibrator is calculated according to the formula 2^□□CT as outlined in ABI User Bulletin #2 (PE Applied Biosystems, Foster City, Calif.).
On the technique in general: Quantitative PCR measures a nucleic acid by following its amplification.

The subject of data set [3] is Collagenase-3 protein secretion. Kind of data set: ELISA for COL-3 protein secretion in chondrocyte supernatants. The format is cell-based, human. The note with it: for Collagenase-3 protein in supernatant: 24 hr, control 2491 ± 147. Here is the method: ELISA for COL-3—Chondrocyte culture cells are incubated in serum free media (DMEM) overnight, and then incubated for 1 hour in fresh serum free media without or with (50 ng/ml) PDGF-BB (Invitrogen-Life Technologies, Carlsbad, Calif.) is added to each well and incubated for an additional 24 hours. Cell culture supernatants are collected and the levels of COL-3 protein are determined for each treatment using Amersham (Piscataway, N.J.) human collagenase-3 ELISA. FIG. 5 depicts the ELISA of COL-3 protein secretion and inhibition by LY249002. Chondrocyte cells isolated as described above are incubated in serum free media overnight, and then incubated for 1 hour in fresh serum free medium (DMEM) with or without LY294002. Then 50 ng/ml PDGF-BB (Sigma, St. Louis, Mo.) is added to each well and incubated for an additional 24 hours. Chondrocyte cell culture supernatants are collected and the levels of COL-3 protein are determined for each treatment using the commercially available Amersham (Piscataway, N.J.) human collagenase-3 ELISA based assay.

The test system of data set [4] is Collagenase-3 (COL-3) mRNA. Kind of data set: RT-PCR of COL-3 mRNA in PDGF stimulated primary human chondrocytes. The format is cell-based. The note with it: primary human chondrocytes (non-OA joints). As for the experimental part: (§6) cDNA from Isolated Normal and Osteoarthritic Cartilage: A quantity of 1 μg total Isolated Normal or Osteoarthritic Cartilage RNA is treated with DNase (Ambion, Austin, Tex.) in DNase buffer (Ambion, Austin, Tex. in a quantity sufficient to make 10 μl total reaction volume and heated at 37° C. for 30 minutes. The DNase enzyme is inactivated by adding EDTA and heating at 75° C. for 5 min. cDNA is then synthesized from the reaction mixture above using Oligo dT12-18 with the Superscript Preamplification System (Life Technologies, Rockville, Md.). The final reaction volume is then adjusted to 300 μl. Cyclophilin RT-PCR is performed on each sample to allow comparative normalized PI3K, PKB, AGG-1, or COL-3 gene quantitation. Reverse transcriptase polymerase chain reaction (RT-PCR) for cyclophilin is first performed using 3 μl template utilizing the Expand Long PCR System (Roche Biochemicals, Indianapolis, Ind.). Cyclophilin RT-PCR is performed on each sample for 28 cycles to prevent saturation of the PCR products, whereas 35-40 cycles is necessary to detect less abundant genes. Loading dye is added to the 50 μl RT-PCR reaction mix, 10 μl of the dyed RT-PCR reaction mix is loaded onto a 4-20% TBE gradient gel (BioRad, Hercules, Calif.)) and separated at 200V for 45 min. The gel is stained in 1×TBE (Sigma, St. Louis, Mo.) solution containing SYBR green (1:10,000) (Molecular Probes, Eugene, Oreg.) for 1 hour and then scanned on the Storm 860—Blue Fluorescence/Chemifluorescence scanner (Molecular Dynamics, Division of Amersham Pharmacia, Piscataway, N.J.). Individual bands are quantitated using ImageQuant software (Molecular Dynamics, Division of Amersham Pharmacia, Piscataway, N.J.). The fluorescence value determined for each PCR band representing a particular gene is normalized against the fluorescence value for the cyclophilin band in the same donor sample.
(§7) Induction or Inhibition of PI3KI3K/PKB In Cultured Chondrocytes: In all studies described below chondrocytes were cultured in DMEM medium with or without 10% Fetal Bovine Serum (Invitrogen Life Technologies, Carlsbad, Calif.). […]

For data set [5], the system named is Aggrecanase-1 (AGG-1) mRNA. Put plainly: RT-PCR of AGG-1 mRNA in PDGF stimulated primary human chondrocytes. Format: cell-based. The note with it: primary human chondrocytes (non-OA joints). As for the experimental part:
as §6, §7

Data set [6] relates to Aggrecanase-1 mRNA. Kind of data set: Real time PCR, fold induction of Aggrecanase-1 mRNA in human articular chondrocytes. The format is cell-based. The note with it: chondrocytes from one OA patient. As for the experimental part: as §2, §3, §4, §5
The subject of data set [7] is PKB pathway (phospho-FKHRL1). Put plainly: Western blot of chondrocyte lysates probed with anti-phospho-FKHRL1. The note with it: PDGF 50 ng/ml alone; primary human chondrocytes (non-OA joints); two samples. Format: cell-based. Here is the method: as §1, with “FIG. 3 depicts activation of PI3K/PKB expression by PDGF in primary human chondrocytes. FIG. 4 depicts LY249002 (2-(4-morpholinyl)-8-phenyl-4H-1-benzopyran-4-one) inhibition of PDGF activated PI3K/PKB expression in primary human chondrocytes.” left out
Western Blotting—Cells are incubated in serum free medium (DMEM) overnight, and then incubated for 10 minutes in fresh serum free media containing PDGF-BB (50 ng/ml)+/−LY294002 (20 μM). […] The protein concentration of the lysate is determined using the micro bicinchoninic acid assay (Pierce, Rockford, Ill.) and 20 μg lysate is run per lane for phospho-PKB and phospho-forkhead and 5 μg for anti-His antibody [rabbit anti-phospho-PKB-Ser473 NEB, rabbit anti-phospho-FKHRL1-Thr32 NEB, mouse anti penta-His (Qiagen, Valencia, Calif.)]. […]

[8] abbreviates: PDGF 50 ng/ml + LY294002 20 μM, listed as LY2490002.
Setting [9] is: inhibitor + IL-1 + Oncostatin M.
[10] abbreviates: inhibitor + IL-1 + Oncostatin M, listed as LY 294002.

“And” between values parts separate entries of the source, which are not always exact repeats. Identical values can stand only once.

In the case of `O=c1cc(N2CCOCC2)oc2c(-c3ccccc3)cccc12` [LY294002, 2-(4-morpholinyl)-8-phenyl-4H-1-benzopyran-4-one], the “Anti Phospho-PKB western blot signal” value in data set [1] (PDGF 50 ng/ml + LY294002 20 μM) was 4706 and 3408; in data set [1] (setting [8]) it was “decreases PDGF induced activation of PKB”. For the same compound, the “Fold Induction of mRNA, Collagenase-3” value in data set [2] (setting [9]) is recorded as “blocked”; in data set [2] (setting [10]), 19 fold; in data set [2] (inhibitor + IL-1) it was 5 fold; in data set [2] (inhibitor + Oncostatin M), 10 fold; in data set [2] (inhibitor + PDGF), 2 fold. Further, the “Collagenase-3 protein in supernatant” value in data set [3] (1 μM LY294002 in the presence of PDGF 50 ng/ml) amounted to 2374 ± 58 pg/mL; in data set [3] (5 μM LY294002 in the presence of PDGF 50 ng/ml) it was 1555 ± 104 pg/mL; in data set [3] (20 μM LY294002 in the presence of PDGF 50 ng/ml) it was 342 ± 8 pg/mL. For the same compound, the “Secretion of COL-3 protein (in words)” value in data set [3] (PDGF stimulated primary human chondrocytes) is “inhibits secretion of COL-3 protein”. Also, the “Collagenase-3 gene expression (PCR amplicon gel signal)” value is 302 in data set [4] (PDGF 50 ng/ml + LY294002 20 μM); “inhibits the downstream production of mRNA for AGG-1 and COL-3” in data set [4] (setting [8]). Further, the “Aggrecanase-1 gene expression (PCR amplicon gel signal)” value in data set [5] (PDGF 50 ng/ml + LY294002 20 μM) is 0; in data set [5] (setting [8]), “inhibits the downstream production of mRNA for AGG-1 and COL-3”. The “Fold Induction of mRNA, Aggrecanase-1” value is “blocked” in data set [6] (setting [9]); 49 fold in data set [6] (setting [10]); 22 fold in data set [6] (inhibitor + IL-1); 45 fold in data set [6] (inhibitor + Oncostatin M); 2 fold in data set [6] (inhibitor + PDGF).

As for Interleukin-1 [IL-1], the “Fold Induction of mRNA, Collagenase-3” value in data set [2] (inducer alone, untreated 1) turned out to be 150 fold. Moreover, in data set [6] (inducer alone, untreated 2), the “Fold Induction of mRNA, Aggrecanase-1” value was found to be 180 fold.

On to oncostatin M, for which the “Fold Induction of mRNA, Collagenase-3” value in data set [2] (inducer alone, untreated 1) is 63 fold. For the same compound, the “Fold Induction of mRNA, Aggrecanase-1” value in data set [6] (inducer alone, untreated 2) turned out to be 221 fold.

For platelet-derived growth factor [PDGF], the “Anti-Phospho-FKHRL1 western blot signal” value in data set [7] is 15838 and 16507. Besides, the “Anti Phospho-PKB western blot signal” value in data set [1] (PDGF 50 ng/ml alone) was 17940 and 22369. Moreover, the “Fold Induction of mRNA, Collagenase-3” value in data set [2] (inducer alone, untreated 1) amounted to 36 fold. Also, the “Collagenase-3 gene expression (PCR amplicon gel signal)” value in data set [4] (PDGF 50 ng/ml alone) is on record as 1242. Further, the “Aggrecanase-1 gene expression (PCR amplicon gel signal)” value in data set [5] (PDGF 50 ng/ml alone) stood at 418. For the same compound, the “Fold Induction of mRNA, Aggrecanase-1” value in data set [6] (inducer alone, untreated 2) amounted to 10 fold.

Source of the values: US20060067938A1, “Methods for the treatment of osteoarthritis and compositions thereof” (priority 2001, published 2006).
